Results reported in article PMC3479139, “Diverse Small Molecule Inhibitors of Human Apurinic/Apyrimidinic Endonuclease APE1 Identified from a Screen of a Large Public Collection” (PLoS ONE, 2012).

Columns and labels:
[1] = biological target: T1, E. coli Endo IV (Escherichia coli, UniProt P0A6C1); test: E. coli Endo IV profiling counterscreen; assay type: biochemical; details: read-out: EndoIV IC50;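 also: selectivity counterscreen of candidate APE1 inhibitors against the bacterial endonuclease Endo IV, run in the same assay format as the primary APE1 high-throughput screen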
T1 construct: made in house
Excerpt: (§1) In order to screen out nonselective compounds, such as non-specific DNA binders and inhibitors of related enzymes, we used a miniaturized ThO DNA displacement assay and a counterscreen against the bacterial endonuclease E. coli Endo IV, respectively, following the previously published protocols [21].
To probe the selectivity of the candidate APE1 inhibitors, we tested them against E. coli EndoIV [36], employing the same assay as used in the HTS.

[2] = biological target: T2, APE1 (Homo sapiens, UniProt P27695); test: Fluorescence polarization (FP) displacement assay of APE1 binding to AP-DNA probe; details: read-out: FP IC50;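 also: TAMRA 5′-labeled duplex DNA with THF abasic site (5 nM) and APE1 (20 nM), Mg2+-free buffer, 15 min at room temperature, inhibition seen as lowered polarization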
T2 construct: made in house

[3] = biological target: T2, APE1; test: Gel-based APE1 incision assay with fluorescence (TAMRA) detection; assay type: biochemical
Description: To test the compounds’ inhibitory activity after the primary screen, two assays designed to monitor the cleavage of substrate to product through electrophoretic separation were utilized. The radiotracer incision assay, utilizing a ^32P-labeled substrate, was performed essentially as described [21], [31], [32]. Incision reactions utilizing ^32P-labeled substrate were carried out for 5 min at 37°C. After the addition of an equal volume of stop buffer (0.05% bromophenol blue and xylene cyanol, 20 mM EDTA, 95% formamide), the substrate and product were separated on a standard polyacrylamide denaturing gel and quantified by PhosphorImager analysis [32]. […] APE1 cleavage of the substrate results in a 18-mer TAMRA-labeled fragment which was separated by a non-denaturing polyacrylamide gel electrophoresis and quantitated in a Gel Doc XR imaging system, BioRad (Hercules, CA). The advantage of this assay is that it can be used in a relatively high throughput mode with the inhibitors tested at a range of concentrations (0.17 µM to 125 µM was used here). APE1 (0.15 nM) was added to a reaction mixture of 20 µL containing assay buffer (40 mM HEPES pH 7.5, 50 mM NaCl, 1 mM MgCl2 and 2 mM DTT), and labeled ds DNA substrate (final 75 nM). The mixture was incubated at RT for 15 min, and the reaction was stopped by the addition 20 µL of 2X dye stop solution (10% glycerol, 20 mM EDTA and bromophenol blue). Then 10 µL of the mixture was resolved on 20% polyacrylamide gel in 1X Tris-borate EDTA running buffer at 250 V for 40 min.
To eliminate false positive hits, all 595 confirmed molecules were tested for their ability to inhibit APE1 incision activity using biochemical assays that involve electrophoretic separation of the substrate and cleavage product.

[4] = biological target: double-stranded 17-mer DNA fragment; test: ThO (Thiazole Orange) DNA displacement assay; assay type: binding; details: read-out: ThO-DNA binding IC50;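 also: miniaturized displacement of the intercalating dye from unlabeled duplex DNA, used to flag nonspecific DNA binders, chiefly intercalators, groove binders may be missed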
Excerpt: The double-stranded 17-mer DNA fragment used in the ThO DNA binding assay was of the same sequence as the fluorogenic HTS substrate but carried no dye labels.
as §1
To detect screening hits that inhibit APE1 activity through non-specific DNA interactions, we employed a previously established miniaturized ThO dye displacement assay [21]. […] We note that the ThO assay reports primarily on DNA binders acting through intercalation, while potentially missing other types of DNA binders, such as those acting through the minor groove.

[5] = biological target: T2, APE1; test: Fluorogenic kinetic qHTS APE1 incision assay (primary screen and retest of cherrypicked samples); assay type: biochemical;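 also: purified APE1 cleaving a fluorophore/dark-quencher labelled 17-mer duplex DNA bearing a tetrahydrofuran AP site, fluorescence rise followed kinetically over the first 2 min, inhibition normalized to controls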
[6] = entries 113-223: fluorophore detection, estimated IC50, read-out: Gel-based electrophoretic separation assay with fluorophore detection, estimated IC50 (column headed Radiotracer Assay (%Activity))
[7] = initial quantitative high-throughput screen, read-out: APE1 qHTS IC50
[8] = retest of cherrypicked sample, read-out: APE1 Retest IC50
[9] = estimated IC50, fluorophore detection, entries 113-223, read-out: F-PAGE Assay IC50

T2 sequence (P27695 whole entry): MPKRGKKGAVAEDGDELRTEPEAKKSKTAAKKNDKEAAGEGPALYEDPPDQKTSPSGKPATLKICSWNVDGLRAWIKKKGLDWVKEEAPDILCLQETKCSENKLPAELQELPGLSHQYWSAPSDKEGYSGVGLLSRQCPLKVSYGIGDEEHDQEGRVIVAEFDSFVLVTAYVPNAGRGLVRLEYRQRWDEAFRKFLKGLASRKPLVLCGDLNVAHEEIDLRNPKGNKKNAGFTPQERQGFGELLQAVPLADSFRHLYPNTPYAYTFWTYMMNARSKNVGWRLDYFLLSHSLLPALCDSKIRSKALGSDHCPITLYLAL

Row | Structure (SMILES) | IC50 [1] [µM] | IC50 [2] [µM] | IC50 [3, 6] [µM] | IC50 [4] [µM] | IC50 [5, 7] [µM] | IC50 [5, 8] [µM] | IC50 [3, 9] [µM]
1 | CSCC[C@H](NS(=O)(=O)c1ccc(C(C)=O)cc1)c1nnc2ccccn12 [MLS001158971] | > 57 | > 57 | 22.4 | > 57 | 21.2 | 9.1 | –
2 | CCCCN(C(=O)c1cccc(-n2cccc2)c1)c1c(N)n(Cc2ccccc2)c(=O)[nH]c1=O [MLS001159279] | > 57 | > 57 | – | > 57 | 2.7 | 12.9 | 2.8
3 | N#Cc1c(NC(=O)COC(=O)c2ccc(O)cc2O)sc2c1CCC2 [MLS001159876] | > 57 | > 57 | 11.2 | 11.5 | 11.9 | 18.2 | –
4 | Cc1ccc(C)c(NC(=O)CN(C)C(=O)c2cccc(-n3cccc3)c2)c1 [MLS001161412] | 16.2 | 12.9 | – | > 57 | 3 | 5.8 | 2.8
5 | COc1ccc(S(=O)(=O)N2CCOCC2)cc1NC(=O)c1cccc(-n2cccc2)c1 [MLS001161521] | > 57 | > 57 | – | > 57 | 3.8 | 7.3 | 4.5
6 | NS(=O)(=O)c1cccc(NC(=O)c2ccc3nc[nH]c3c2)c1 [MLS001177378] | > 57 | > 57 | 12.6 | 32.4 | 26.7 | 45.7 | –
7 | CCOC(=O)C1=C(C)N=c2s/c(=C\c3ccc(OCC(=O)O)cc3)c(=O)n2C1c1ccc(Cl)cc1 (stereo not drawn) [MLS001178472] | > 57 | > 57 | 11.2 | > 57 | 10.6 | 14.5 | –
8 | CC1=C(C(=O)OC(C)C)C(c2ccc(Cl)cc2)n2c(s/c(=C\c3ccc(OCC(=O)O)cc3)c2=O)=N1 (stereo not drawn) [MLS001178474] | > 57 | > 57 | – | 10.2 | 6.7 | 5.1 | 1.4
9 | O=C(Nc1ccc2oc(-c3ccccc3F)nc2c1)c1ccc([N+](=O)[O-])o1 [MLS001194759] | > 57 | > 57 | – | 10.2 | 2.7 | 3.2 | 2.5
10 | Nc1c(S(=O)(=O)O)cc(NC(=O)c2ccccc2)c2c1C(=O)c1ccccc1C2=O [MLS001194971] | > 57 | > 57 | – | > 57 | 21.2 | 18.2 | 7.9
11 | c1ccc2c(NCCc3c[nH]c4ccccc34)c3ccccc3nc2c1 [MLS001195935] | > 57 | > 57 | 25.1 | 32.4 | 18.9 | 18.2 | –
12 | O=C(O)c1ccc(-c2ccc(/C=c3/sc4nc5ccccc5n4c3=O)o2)cc1Cl [MLS001196440] | > 57 | > 57 | – | 40.8 | 9.5 | 7.3 | 7.1
13 | COc1ccc(Cl)cc1NC(=O)CCS(=O)(=O)c1ccc(Br)cc1 [MLS001202289] | > 57 | > 57 | 12.6 | 45.7 | 11.9 | 45.7 | –
14 | COC(=O)c1cc(NC(=O)Cc2cccs2)cc(C(=O)OC)c1 [MLS001211293] | > 57 | > 57 | – | > 57 | 13.4 | – | 7.1
15 | COc1ccccc1N(CC(=O)NCc1ccco1)S(=O)(=O)c1ccc(C)cc1 [MLS001219746] | > 57 | > 57 | – | > 57 | 21.2 | 16.2 | 8.9
16 | NS(=O)(=O)c1cc(C(=O)NC2CCSc3ccccc32)ccc1Cl (stereo not drawn) [MLS001233727] | > 57 | > 57 | – | > 57 | 0.1 | 0.3 | 0.1
17 | CCNc1nc(NCC)n2c(SCC(=O)Nc3cccc(F)c3)nnc2n1 [MLS001234358] | 36.3 | 18.2 | 11.2 | > 57 | 11.9 | 11.5 | 5
18 | CCNc1nc(NCC)n2c(SCC(=O)Nc3ccc(OC(F)F)cc3)nnc2n1 [MLS001234379] | > 57 | > 57 | – | > 57 | 10.6 | 11.5 | 7.1
19 | CCNc1nc(NCC)n2c(SCC(=O)Nc3ccccc3C(F)(F)F)nnc2n1 [MLS001234389] | > 57 | > 57 | 14.1 | > 57 | 21.2 | 12.9 | –
20 | O=C(CSc1nnc(CNC(=O)c2c(F)cccc2F)o1)NCc1ccco1 [MLS001235900] | > 57 | 18.2 | 12.6 | > 57 | 10.6 | 45.7 | –
